Reference: article PMC10817512, “OSMAC-Based Discovery and Biosynthetic Gene Clusters Analysis of Secondary Metabolites from Marine-Derived Streptomyces globisporus SCSIO LCY30” (Marine Drugs, 2023)

What was measured:
[1] = system: Staphylococcus simulans AKA1; assay: Antibacterial MIC, CLSI microdilution; assay type: cell-based; details: Staphylococcus simulans AKA1; 37 °C, 16–18 h
[2] = system: breast cancer cell line MCF7; assay: Cell growth inhibitory (cytotoxic) activity assay; assay type: cell-based, human
Excerpt: SPSS software version 22.0 was used to test the IC50 values.

[3] = system: Staphylococcus aureus ATCC 29213; assay: Antibacterial MIC, CLSI microdilution; assay type: cell-based; details: Staphylococcus aureus ATCC 29213; 37 °C, 16–18 h
Experimental: (§1) An antibacterial activity test of compounds 1–3 was conducted according to a standard protocol provided by the Clinical and Laboratory Standards Institute (CLSI). Sixteen bacterial strains were used, including Staphylococcus aureus ATCC 29213, Staphylococcus aureus 16339, Staphylococcus aureus 1862, Staphylococcus aureus 3090, Staphylococcus aureus 991, Staphylococcus aureus 669, Staphylococcus aureus 745324, Staphylococcus aureus 16162, Staphylococcus aureus (cfr) GDE4P037P, Enterococcus faecalis ATCC 29212, Enterococcus faecalis 36950, Micrococcus luteus ML01, MRSA, Bacillus subtilis BS01, Enterococcus gallinarum 5F52C, and Enterococcus faecium 36711. Compounds 1–3 were dissolved in DMSO at a concentration of 3.2 mg/mL, and vancomycin and ampicilin were used as antibacterial control agents. […] All the assays were carried out in triplicate.

[4] = system: Bacillus subtilis BS01; assay: Antibacterial MIC, CLSI microdilution; assay type: cell-based; details: Bacillus subtilis BS01; 37 °C, 16–18 h
Experimental: as §1

[5] = system: Staphylococcus aureus 991; assay: Antibacterial MIC, CLSI microdilution; assay type: cell-based; details: Staphylococcus aureus 991; 37 °C, 16–18 h
Experimental: as §1

[6] = system: Staphylococcus aureus 669; assay: Antibacterial MIC, CLSI microdilution; assay type: cell-based; details: Staphylococcus aureus 669; 37 °C, 16–18 h
Experimental: as §1

[7] = system: Staphylococcus aureus 16162; assay: Antibacterial MIC, CLSI microdilution; assay type: cell-based; details: Staphylococcus aureus 16162; 37 °C, 16–18 h
Experimental: as §1

[8] = system: Staphylococcus aureus 1862; assay: Antibacterial MIC, CLSI microdilution; assay type: cell-based; details: Staphylococcus aureus 1862; 37 °C, 16–18 h
Experimental: as §1

[9] = system: Enterococcus faecalis ATCC 29212; assay: Antibacterial MIC, CLSI microdilution; assay type: cell-based; details: Enterococcus faecalis ATCC 29212; 37 °C, 16–18 h
Experimental: as §1

[10] = system: Staphylococcus aureus 3090; assay: Antibacterial MIC, CLSI microdilution; assay type: cell-based; details: Staphylococcus aureus 3090; 37 °C, 16–18 h
Experimental: as §1

[11] = system: Enterococcus gallinarum 5F52C; assay: Antibacterial MIC, CLSI microdilution; assay type: cell-based; details: Enterococcus gallinarum 5F52C; 37 °C, 16–18 h
Experimental: as §1

[12] = system: Staphylococcus aureus 16339; assay: Antibacterial MIC, CLSI microdilution; assay type: cell-based; details: Staphylococcus aureus 16339; 37 °C, 16–18 h
Experimental: as §1

[13] = system: Enterococcus faecium 36711; assay: Antibacterial MIC, CLSI microdilution; assay type: cell-based; details: Enterococcus faecium 36711; 37 °C, 16–18 h
Experimental: as §1

[14] = system: Staphylococcus aureus (cfr) GDE4P037P; assay: Antibacterial MIC, CLSI microdilution; assay type: cell-based; details: Staphylococcus aureus (cfr) GDE4P037P; 37 °C, 16–18 h
Experimental: as §1

[15] = system: Enterococcus faecalis 36950; assay: Antibacterial MIC, CLSI microdilution; assay type: cell-based; details: Enterococcus faecalis 36950; 37 °C, 16–18 h
Experimental: as §1

[16] = system: Staphylococcus aureus 745324; assay: Antibacterial MIC, CLSI microdilution; assay type: cell-based; details: Staphylococcus aureus 745324; 37 °C, 16–18 h
Experimental: as §1

[17] = system: Micrococcus luteus ML01; assay: Antibacterial MIC, CLSI microdilution; assay type: cell-based; details: Micrococcus luteus ML01; 37 °C, 16–18 h
Experimental: as §1

[18] = system: human umbilical vein endothelial cell line HUVEC; assay: Cell growth inhibitory (cytotoxic) activity assay; assay type: cell-based
Excerpt: (§2) The cell growth inhibitory activities of compounds 1–3 against fourteen different human cell lines (human liver cell line LX-2; hepatocellular cancer line HEPG2; human intestinal epithelial cell line NCM460; colorectal cancer cell lines HCT116 and SW480; normal human breast cell line MCF-10A; breast cancer cell line MCF7; triple-negative breast cancer cell lines MDA-MB-231, MDA-MB-468, and Bt-549; human umbilical vein endothelial cell line; lung cancer cell line A549; cervical cancer cell line Hela; and cholangiocarcinoma cell line RBE) were tested according to the previously published methods. SPSS software version 22.0 was used to test the IC50 values. Cisplatin and adriamycin were used as positive control agents, and all the experiments were carried out in triplicate.

[19] = system: human intestinal epithelial cell line NCM460; assay: Cell growth inhibitory (cytotoxic) activity assay; assay type: cell-based; details: NCM460 (normal intestinal epithelial cell line)
Excerpt: as §2

[20] = system: normal human breast cell line MCF-10A; assay: Cell growth inhibitory (cytotoxic) activity assay; assay type: cell-based; details: MCF-10A (normal human breast cell line)
Excerpt: as §2

[21] = system: human liver cell line LX-2; assay: Cell growth inhibitory (cytotoxic) activity assay; assay type: cell-based; details: LX-2 (human liver cell line)
Excerpt: as §2

[22] = system: MRSA; assay: Antibacterial MIC, CLSI microdilution; assay type: cell-based, Staphylococcus aureus; details: 37 °C, 16–18 h
Experimental: as §1

[23] = system: cholangiocarcinoma cell line RBE; assay: Cell growth inhibitory (cytotoxic) activity assay; assay type: cell-based, human
Excerpt: as §2

[24] = system: hepatocellular cancer line HEPG2; assay: Cell growth inhibitory (cytotoxic) activity assay; assay type: cell-based, human
Excerpt: as §2

[25] = system: lung cancer cell line A549; assay: Cell growth inhibitory (cytotoxic) activity assay; assay type: cell-based, human
Excerpt: as §2

[26] = system: triple-negative breast cancer cell line MDA-MB-468; assay: Cell growth inhibitory (cytotoxic) activity assay; assay type: cell-based, human
Excerpt: as §2

[27] = system: colorectal cancer cell line SW480; assay: Cell growth inhibitory (cytotoxic) activity assay; assay type: cell-based, human; details: SW480 (colorectal cancer)
Excerpt: as §2

[28] = system: colorectal cancer cell line HCT116; assay: Cell growth inhibitory (cytotoxic) activity assay; assay type: cell-based, human
Excerpt: as §2

[29] = system: triple-negative breast cancer cell line Bt-549; assay: Cell growth inhibitory (cytotoxic) activity assay; assay type: cell-based, human
Excerpt: as §2

[30] = system: cervical cancer cell line Hela; assay: Cell growth inhibitory (cytotoxic) activity assay; assay type: cell-based, human
Excerpt: as §2

[31] = system: triple-negative breast cancer cell line MDA-MB-231; assay: Cell growth inhibitory (cytotoxic) activity assay; assay type: cell-based, human
Excerpt: as §2

[32] = system: Bacillus subtilis; design: method as in PMID 18396903; details: ref [35]; cited from earlier work

mayamycin A [Mayamycin (1)]
MIC [1]: 32 µg/mL
IC50 [2]: 2.1 µM
MIC [3]: 16 µg/mL
MIC [4]: 8 µg/mL
MIC [5]: 16 µg/mL
MIC [6]: 16 µg/mL
MIC [7]: 16 µg/mL
MIC [8]: 16 µg/mL
MIC [9]: 32 µg/mL
MIC [10]: 16 µg/mL
MIC [11]: 32 µg/mL
MIC [12]: 16 µg/mL
MIC [13]: 16 µg/mL
MIC [14]: 8 µg/mL
MIC [15]: 8 µg/mL
MIC [16]: 16 µg/mL
MIC [17]: 1 µg/mL
IC50 [18]: 1.68 µM
IC50 [19]: 2.64 µM
IC50 [20]: 5.98 µM
IC50 [21]: 2.31 µM
MIC [22]: 8 µg/mL
IC50 [23]: 1.05 µM
IC50 [24]: 2.12 µM
IC50 [25]: 1.65 µM
IC50 ([26]; MDA-MB-468 (TNBC)): 2.22 µM
selective index ([26]; MDA-MB-468 versus normal breast cells): 2.69
IC50 [27]: 1.05 µM
IC50 [28]: 1.08 µM
IC50 ([29]; Bt-549 (TNBC)): 1.88 µM
selective index ([29]; Bt-549 versus normal breast cells): 3.18
IC50 [30]: 0.91 µM
IC50 ([31]; MDA-MB-231 (TNBC)): 0.6 µM
selective index ([31]; MDA-MB-231 versus normal breast cells): 9.97

streptophenazine H
MIC [32]: 15.6 µg/mL
